Results published in ChEMBL document CHEMBL1201862, “PubChem BioAssay data set” (2004).
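Values below derive from 48-hour exposures of cells grown in 96-well plates, with endpoints linearly interpolated between the two concentrations bracketing the appropriate inhibition level. GI50 is the concentration that inhibits growth by half.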 Activity calls are given as the source filed them. Rule as the data show it: active = GI50 up to about 1.1 µM and inactive = higher.

What was measured:
Assay in all cases: DTP human tumour cell line panel, 48 h
HCC 2998 = system: HCC 2998
HCT-15 = system: HCT-15
HL-60 = system: HL-60
KM12 = system: KM12
Malme-3M = system: Malme-3M
NCI-H226 = system: NCI-H226
NCI-H460 = system: NCI-H460
NCI-H522 = system: NCI-H522
RXF 393 = system: RXF 393
SK-MEL-2 = system: SK-MEL-2
SK-OV-3 = system: SK-OV-3
SN12C = system: SN12C
SNB-75 = system: SNB-75
SW-620 = system: SW-620
CCRF-CEM = system: CCRF-CEM

Row | SMILES | GI50 (HCC 2998) | GI50 (HCT-15) [µM] | GI50 (HL-60) | GI50 (KM12) | GI50 (Malme-3M) | GI50 (NCI-H226) | GI50 (NCI-H460) | GI50 (NCI-H522) | GI50 (RXF 393) | GI50 (SK-MEL-2) | GI50 (SK-OV-3) | GI50 (SN12C) | GI50 (SNB-75) | GI50 (SW-620) | GI50 (CCRF-CEM)
1 | CC1=C(C(=O)Nc2ccc(Cl)c(Cl)c2)C(c2ccc([N+](=O)[O-])cc2)C(C(=O)Nc2ccc(Cl)c(Cl)c2)=C(C)N1 | 2 µM (inactive) | 2.6 | 0.361 µM (active) | 1.82 µM (inactive) | 2.57 µM (inactive) | 3.88 µM (inactive) | 2.41 µM (inactive) | 2.55 µM (inactive) | 1.78 µM (inactive) | 2.1 µM (inactive) | 4.31 µM (inactive) | 2.34 µM (inactive) | 3.84 µM (inactive) | 3.05 µM (inactive) | –
2 | O=C1/C(=N\O)c2ccccc2S1(=O)=O | 18.4 µM (inactive) | > 100 | 25.2 µM (inactive) | > 100 µM (inactive) | 55.3 µM (inactive) | 19.4 µM (inactive) | > 100 µM (inactive) | 60 µM (inactive) | > 100 µM (inactive) | > 100 µM (inactive) | > 100 µM (inactive) | > 100 µM (inactive) | 66.2 µM (inactive) | > 100 µM (inactive) | 60 µM (inactive)
3 | CCN(CC)CC1CCCCCCCCCCC1=O (stereo not given) | > 100 µM (inactive) | > 100 | > 100 µM (inactive) | > 100 µM (inactive) | > 100 µM (inactive) | > 100 µM (inactive) | > 100 µM (inactive) | > 100 µM (inactive) | – | > 100 µM (inactive) | – | > 100 µM (inactive) | 42.3 µM (inactive) | > 100 µM (inactive) | > 100 µM (inactive)
4 | CC(=O)CCC1(c2ccccc2)OC(=O)C(C#N)=C1c1ccccc1 (stereo not given) | > 100 µM (inactive) | > 100 | – | > 100 µM (inactive) | > 100 µM (inactive) | – | > 100 µM (inactive) | 1.53 µM (inactive) | – | > 100 µM (inactive) | > 100 µM (inactive) | > 100 µM (inactive) | 29.4 µM (inactive) | > 100 µM (inactive) | 43.5 µM (inactive)
5 | FC(F)(F)c1ccc2c(c1)N(CCCNCCN1CCOCC1)c1ccccc1S2 | 2.23 µM (inactive) | 6.52 | 6.07 µM (inactive) | 11.6 µM (inactive) | 2.44 µM (inactive) | – | 11.2 µM (inactive) | 14.9 µM (inactive) | 2.62 µM (inactive) | 3.66 µM (inactive) | > 10 µM (inactive) | 13.3 µM (inactive) | 7.13 µM (inactive) | 10.2 µM (inactive) | 12.6 µM (inactive)
6 | O=c1[nH]c(C2CCCCC2)nc2ccc(Cl)cc12 | > 100 µM (inactive) | > 100 | – | > 100 µM (inactive) | > 100 µM (inactive) | > 100 µM (inactive) | – | – | > 100 µM (inactive) | > 100 µM (inactive) | > 100 µM (inactive) | > 100 µM (inactive) | 38.3 µM (inactive) | > 100 µM (inactive) | –
7 | Cc1cccc(C)c1NC(=O)CCc1nnc2s/c(=C\c3ccc(N(C)C)cc3)c(=O)n12 | > 100 µM (inactive) | > 100 | 68.1 µM (inactive) | > 100 µM (inactive) | > 100 µM (inactive) | > 100 µM (inactive) | > 100 µM (inactive) | > 100 µM (inactive) | 69.2 µM (inactive) | > 100 µM (inactive) | > 100 µM (inactive) | > 100 µM (inactive) | > 100 µM (inactive) | > 100 µM (inactive) | 38.6 µM (inactive)
8 | O=S(OC12CC3CC(CC(C3)C1)C2)c1cc(Cl)cc(Cl)c1OCc1ccccc1 (stereo not given) | > 100 µM (inactive) | – | > 100 µM (inactive) | > 100 µM (inactive) | > 100 µM (inactive) | – | > 100 µM (inactive) | 19 µM (inactive) | > 100 µM (inactive) | > 100 µM (inactive) | > 100 µM (inactive) | > 100 µM (inactive) | > 100 µM (inactive) | – | > 100 µM (inactive)
9 | O=C1CC2C(=O)N(Cc3ccccc3)C1C(S(=O)(=O)c1ccccc1)C2S(=O)(=O)c1ccccc1 (stereo not given) | 8.02 µM (inactive) | 1.32 | 1.62 µM (inactive) | 13.7 µM (inactive) | 2 µM (inactive) | 13.3 µM (inactive) | 17.7 µM (inactive) | 0.363 µM (active) | 1.83 µM (inactive) | – | 17.6 µM (inactive) | 1.68 µM (inactive) | 7.28 µM (inactive) | 0.528 µM (active) | 1.11 µM (active)
10 | C/C(=N/NC(=O)CC(=O)N(C(=O)c1ccccc1Cl)c1ccc(C)cc1)c1cc2ccccc2oc1=O | > 100 µM (inactive) | > 100 | > 100 µM (inactive) | > 100 µM (inactive) | > 100 µM (inactive) | > 100 µM (inactive) | > 100 µM (inactive) | > 100 µM (inactive) | > 100 µM (inactive) | – | – | > 100 µM (inactive) | 31 µM (inactive) | > 100 µM (inactive) | > 100 µM (inactive)
11 | [O-][S+]1c2ccccc2N=C(c2ccc(Cl)cc2)CC1c1cccs1 (stereo not given) | 16.3 µM (inactive) | 15.5 | 14.2 µM (inactive) | 14.7 µM (inactive) | 57.8 µM (inactive) | 90.4 µM (inactive) | 36.8 µM (inactive) | 27.4 µM (inactive) | 14.4 µM (inactive) | – | 28.9 µM (inactive) | 19 µM (inactive) | 46.7 µM (inactive) | 14.4 µM (inactive) | 17.3 µM (inactive)
12 | Cc1cn(C2CC(N(O)Cc3ccccc3)C(CO)O2)c(=O)[nH]c1=O (stereo not given) | > 100 µM (inactive) | > 100 | > 100 µM (inactive) | > 100 µM (inactive) | – | > 100 µM (inactive) | > 100 µM (inactive) | – | > 100 µM (inactive) | – | > 100 µM (inactive) | > 100 µM (inactive) | > 100 µM (inactive) | > 100 µM (inactive) | > 100 µM (inactive)
13 | CCOC(=O)C1Nc2ccc([N+](=O)[O-])cc2[C@H]2OCC[C@@H]12 (stereo not given in full) | > 100 µM (inactive) | > 100 | > 100 µM (inactive) | > 100 µM (inactive) | > 100 µM (inactive) | > 100 µM (inactive) | > 100 µM (inactive) | > 100 µM (inactive) | > 100 µM (inactive) | > 100 µM (inactive) | > 100 µM (inactive) | > 100 µM (inactive) | > 100 µM (inactive) | > 100 µM (inactive) | > 100 µM (inactive)
14 | Cc1cccc(C)c1NC(=O)CCC(=O)NNC(=O)c1cc(O)c2ccccc2c1 | 51.9 µM (inactive) | 25.3 | 27.8 µM (inactive) | 99.1 µM (inactive) | 72.1 µM (inactive) | > 100 µM (inactive) | 27.6 µM (inactive) | 26.3 µM (inactive) | 5.35 µM (inactive) | – | 97.9 µM (inactive) | 78.7 µM (inactive) | > 100 µM (inactive) | 40 µM (inactive) | 12.2 µM (inactive)
15 | CC(=O)NC1CC2Oc3ccc(C)cc3C(C)(O2)C1O (stereo not given) | – | > 100 | > 100 µM (inactive) | > 100 µM (inactive) | > 100 µM (inactive) | > 100 µM (inactive) | > 100 µM (inactive) | > 100 µM (inactive) | > 100 µM (inactive) | > 100 µM (inactive) | > 100 µM (inactive) | > 100 µM (inactive) | > 100 µM (inactive) | > 100 µM (inactive) | > 100 µM (inactive)
16 | COc1ccc(/C(Cl)=C(\C=O)c2ccc(Cl)c(Cl)c2)cc1 | – | 4.6 | 4.12 µM (inactive) | – | 16.1 µM (inactive) | 13.2 µM (inactive) | 5.25 µM (inactive) | 2.51 µM (inactive) | – | 3.52 µM (inactive) | 30.6 µM (inactive) | 7.1 µM (inactive) | 3.04 µM (inactive) | 4.53 µM (inactive) | 2.96 µM (inactive)
17 | CC1NCCc2c1[nH]c1cc(O)ccc21 (stereo not given) | > 100 µM (inactive) | > 100 | > 100 µM (inactive) | > 100 µM (inactive) | > 100 µM (inactive) | > 100 µM (inactive) | > 100 µM (inactive) | – | > 100 µM (inactive) | > 100 µM (inactive) | > 100 µM (inactive) | > 100 µM (inactive) | > 100 µM (inactive) | > 100 µM (inactive) | > 100 µM (inactive)
18 | CCOC(=O)C(=C=C=C(c1ccccc1)c1ccccc1)C(=O)OCC | 25 µM (inactive) | 19.6 | 15.4 µM (inactive) | 19.6 µM (inactive) | 19.8 µM (inactive) | 15.5 µM (inactive) | 22.8 µM (inactive) | – | 10.7 µM (inactive) | 16.6 µM (inactive) | 23.2 µM (inactive) | 20.7 µM (inactive) | 3.87 µM (inactive) | 21.5 µM (inactive) | 3.52 µM (inactive)
19 | FC(F)(F)C1(Cl)C(Cl)(c2ccccc2)C1(Cl)c1ccccc1 (stereo not given) | 16.9 µM (inactive) | 13.7 | 17.7 µM (inactive) | 15.6 µM (inactive) | – | 13.9 µM (inactive) | 15.8 µM (inactive) | – | 13.9 µM (inactive) | 15.7 µM (inactive) | 23.1 µM (inactive) | 15.2 µM (inactive) | 16.3 µM (inactive) | 15.7 µM (inactive) | 14.9 µM (inactive)
20 | O=C1OC(c2cccc(C(F)(F)F)c2)(c2cccc(C(F)(F)F)c2)c2ccc3ccccc3c21 | > 10 µM (inactive) | 9.25 | 3.56 µM (inactive) | 79.1 µM (inactive) | 4.79 µM (inactive) | 85.5 µM (inactive) | > 10 µM (inactive) | > 10 µM (inactive) | 5.65 µM (inactive) | > 10 µM (inactive) | > 10 µM (inactive) | > 10 µM (inactive) | > 10 µM (inactive) | > 10 µM (inactive) | 7.85 µM (inactive)
